Data: publication PMC12546632, “The role of cytochrome bc1 inhibitors in future tuberculosis treatment regimens” (Nature Communications, 2025)
Several values for one entry are separate records, joined by “and”; a condition that tells them apart may be missing. Equal entries are not always repeated.

Test system: JNJ-2901- and JNJ-4052-resistant M. tuberculosis ΔcydAB strains (QcrA/QcrB mutants)
Format: cell-based, Mycobacterium tuberculosis

NNC(=O)c1ccncc1 [Isoniazid, isoniazid]
MIC50 fold change from parental strain: 1 fold and 0.5 fold
